These molecules were tested against T1, γ-secretase (Aβ(1-42) production in SH-SY5Y neuroblastoma cells overexpressing SPA4CT) (Homo sapiens, UniProt P49768) (assay: Cell-based γ-secretase assay, Aβ(1-42) inhibition). Conditions: overnight incubation, Meso Scale detection of Aβ(42).
T1 construct: Human SH-SY5Y neuroblastoma cells overexpressing the direct 7-secretase substrate SPA4CT; endogenous in cells; host or cells: Human SH-SY5Y neuroblastoma cells (stably overexpressing the substrate SPA4CT, induced with sodium butyrate)
Method: Cell-Based γ-Secretase Assay
Human SH-SY5Y neuroblastoma cells overexpressing the direct 7-secretase substrate SPA4CT were induced with sodium butyrate (10 mM) for 4 hours prior to plating. Cells were plated at 35,000 cells/well/100 μl in 96-well plates in phenol red-free MEM/10% FBS, 50 mM HEPES, 1% Glutamine and incubated for 2 hrs at 37° C., 5% CO2.
Compounds for testing were diluted into Me2SO to give a ten point dose-response curve. Typically 10 μl of these diluted compounds in Me2SO were further diluted into 182 μl dilution buffer (phenol red-free MEM/10% FBS, 50 mM HEPES, 1% Glutamine) and 10 μl of each dilution was added to the cells in 96-well plates (yielding a final Me2SO concentration of 0.5%). Appropriate vehicle and inhibitor controls were used to determine the window of the assay.
After incubation overnight at 37° C., 5% CO2, 25 μl and 50 μl media were transferred into a standard Meso avidin-coated 96-well plate for detection of Aβ(40) and Aβ(42) peptides, respectively. 25 μl Meso Assay buffer (PBS, 2% BSA, 0.2% Tween-20) was added to the Aβ(40) wells followed by the addition of 25 μl of the respective antibody premixes to the wells: • Aβ(40) premix: 1 μg/ml ruthenylated G2-10 antibody, 4 μg/ml biotinylated 4G8 antibody diluted in Origen buffer • Aβ(42) premix: 1 μg/ml ruthenylated G2-11 antibody, 4 μg/ml biotinylated 4G8 antibody diluted in Origen buffer
(Biotinylated 4G8 antibody supplied by Signet Pathology Ltd; G2-10 and G2-11 antibodies supplied by Chemicon)
After overnight incubation of the assay plates on a shaker at 4° C., the Meso Scale Sector 6000 Imager was calibrated according to the manufacturer's instructions. After washing the plates 3 times with 150 μl of PBS per well, 150 μl Meso Scale Discovery read buffer was added to each well and the plates were read on the Sector 6000 Imager according to the manufacturer's instructions.
LD50 and IC50 values for inhibition of Aβ(40) and Aβ(42) were calculated by nonlinear regression fit analysis using the appropriate software (eg. Excel fit). The total signal and the background were defined by the corresponding Me2SO and inhibitor controls.

Row | SMILES | IC50
1 | CCN(CC)c1ccc(Nc2ccnc(N3CCN(c4ccc(OC)cc4)CC3)n2)c(C)c1 [Example 3, N,N-Diethyl-N-{2-[4-(4-methoxy-phenyl)-piperazin-1-yl]-pyrimidin-4-yl}-2-methyl-benzene-1,4-diamine] | 1000 to 3000 nM
2 | CCN(CC)c1ccc(Nc2ccnc(N3CCN(c4ccc(OC)nc4)CC3)n2)c(C)c1 [Example 5] | 1000 to 3000 nM
3 | COc1ccc(N2CCN(c3ncc(F)c(Nc4cc(C(C)(C)C)ccc4C)n3)CC2(C)C)cc1 [Example 8] | 500 to 1000 nM
4 | CCN(CC)c1ccc(Nc2ccnc(N3CCN(c4ccc(OC)cc4)C(C)C3)n2)c(C)c1 (stereo not shown) [Example 10, N4,N4-diethyl-N1-{2-[4-(4-methoxyphenyl)-3-methylpiperazin-1-yl]pyrimidin-4-yl}-2-methylbenzene-1,4-diamine] | 500 to 1000 nM
5 | COc1ccc(N2CCN(c3nccc(Nc4cc(OC)ccc4C)n3)CC2(C)C)cc1 [Example 11, N-(5-methoxy-2-methylphenyl)-2-[4-(4-methoxyphenyl)-3,3-dimethylpiperazin-1-yl]pyrimidin-4-amine] | 1000 to 3000 nM
6 | CCN(CC)c1ccc(Nc2cc(C)nc(N3CCN(c4ccc(OC)cc4)C(C)(C)C3)n2)c(C)c1 [Example 15, N4,N4-diethyl-N1-{2-[4-(4-methoxyphenyl)-3,3-dimethylpiperazin-1-yl]-6-methylpyrimidin-4-yl}-2-methylbenzene-1,4-diamine] | 500 to 1000 nM
7 | CCN(CC)c1ccc(Nc2nc(N3CCN(c4ccc(OC)cc4)C(C)(C)C3)ncc2Cl)c(C)c1 [Example 19, N1-{5-chloro-2-[4-(4-methoxyphenyl)-3,3-dimethylpiperazin-1-yl]pyrimidin-4-yl}-N4,N4-diethyl-2-methylbenzene-1,4-diamine] | 500 to 1000 nM
8 | CCN(CC)c1ccc(Nc2nc(N3CCN(c4ccc(OC)cc4)C(C)(C)C3)ncc2Br)c(C)c1 [Example 20, N1-{5-bromo-2-[4-(4-methoxyphenyl)-3,3-dimethylpiperazin-1-yl]pyrimidin-4-yl}-N4,N4-diethyl-2-methylbenzene-1,4-diamine] | 500 to 1000 nM
9 | CCN(CC)c1ccc(Nc2ccnc(N3CCN(c4ccc(OC)c(OC)c4)CC3)n2)c(C)c1 [Example 24, N1-{2-[4-(3,4-dimethoxyphenyl)piperazin-1-yl]pyrimidin-4-yl}-N4,N4-diethyl-2-methylbenzene-1,4-diamine] | 1000 to 3000 nM
10 | CCN(CC)c1ccc(Nc2cc(C(=O)O)nc(N3CCN(c4ccc(OC)cc4)C(C)(C)C3)n2)c(C)c1 [Example 26, 6-[[4-(diethylamino)-2-methylphenyl]amino]-2-[4-(4-methoxyphenyl)-3,3-dimethyl-1-piperazinyl]-4-pyrimidinecarboxylic acid] | 500 to 1000 nM
11 | COc1ccc(N2CCN(c3nccc(Nc4ccc(-n5cccn5)cc4C)n3)CC2(C)C)cc1 [Example 41, 2-[4-(4-methoxyphenyl)-3,3-dimethylpiperazin-1-yl]-N-[2-methyl-4-(1H-pyrazol-1-yl)phenyl]pyrimidin-4-amine] | 500 to 1000 nM
12 | COc1ccc(N2CCN(c3nccc(Nc4ccc(N5CCC5)cc4C)n3)CC2(C)C)cc1 [Example 43, N-(4-azetidin-1-yl-2-methylphenyl)-2-[4-(4-methoxyphenyl)-3,3-dimethylpiperazin-1-yl]pyrimidin-4-amine] | 500 to 1000 nM
13 | CCCCc1ccc(Nc2ccnc(N3CCN(c4ccc(OC)cc4)C(C)(C)C3)n2)c(C)c1 [Example 44, N-(4-butyl-2-methylphenyl)-2-[4-(4-methoxyphenyl)-3,3-dimethylpiperazin-1-yl]pyrimidin-4-amine] | 1000 to 3000 nM
14 | COc1ccc(N2CCN(c3ncc(F)c(Nc4cc(C(C)(C)C)ccc4C)n3)CC2(C)C)cc1F [Example 88, N-(5-tert-butyl-2-methylphenyl)-5-fluoro-2-[4-(3-fluoro-4-methoxyphenyl)-3,3-dimethylpiperazin-1-yl]pyrimidin-4-amine] | 500 to 1000 nM
15 | COc1ccc(N2CCN(c3nc(Nc4cc(C(C)(C)C)ccc4C)cc(C(=O)N(C)CCN(C)C)n3)CC2(C)C)cc1 [Example 93, 6-[(5-tert-butyl-2-methylphenyl)amino]-N-[2-(dimethylamino)ethyl]-2-[4-(4-methoxyphenyl)-3,3-dimethylpiperazin-1-yl]-N-methylpyrimidine-4-carboxamide] | < 500 nM

More lines, now with the values ahead:

Row | IC50 | SMILES
16 | < 500 nM | CCN(CC)c1ccc(Nc2nc(N3CCN(c4ccc(OC)cc4)C(C)(C)C3)ncc2C)c(C)c1 [Example 14, N4,N4-diethyl-N1-{2-[4-(4-methoxyphenyl)-3,3-dimethylpiperazin-1-yl]-5-methylpyrimidin-4-yl}-2-methylbenzene-1,4-diamine]
17 | < 500 nM | CCN(CC)c1cc(C)c(Nc2ccnc(N3CCN(c4ccc(OC)cc4)C(C)(C)C3)n2)cc1C [Example 16, N4,N4-diethyl-N1-{2-[4-(4-methoxyphenyl)-3,3-dimethylpiperazin-1-yl]pyrimidin-4-yl}-2,5-dimethylbenzene-1,4-diamine]
18 | < 500 nM | CCN(CC)c1ccc(Nc2nc(N3CCN(c4ccc(OC)cc4)C(C)(C)C3)ncc2F)c(C)c1 [Example 18, N4,N4-diethyl-N1--{5-fluoro-2-[4-(4-methoxyphenyl)-3,3-dimethylpiperazin-1-yl]pyrimidin-4-yl}-2-methylbenzene-1,4-diamine]
19 | < 500 nM | CCN(CC)c1ccc(Nc2cc(C(=O)OC)nc(N3CCN(c4ccc(OC)cc4)C(C)(C)C3)n2)c(C)c1 [Example 22, methyl 6-{[4-(diethylamino)-2-methylphenyl]amino}-2-[4-(4-methoxyphenyl)-3,3-dimethylpiperazin-1-yl]pyrimidine-4-carboxylate]
20 | < 500 nM | CCN(CC)c1ccc(Nc2nc(N3CCN(c4ccc(OC)cc4)C(C)(C)C3)ncc2OC)c(C)c1 [Example 25, N4,N4-diethyl-N1-{5-methoxy-2-[4-(4-methoxyphenyl)-3,3-dimethylpiperazin-1-yl]pyrimidin-4-yl}-2-methylbenzene-1,4-diamine]
21 | < 500 nM | CCN(CC)c1ccc(Nc2cc(C(=O)N(C)C)nc(N3CCN(c4ccc(OC)cc4)C(C)(C)C3)n2)c(C)c1 [Example 27, 6-{[4-(diethylamino)-2-methylphenyl]amino}-2-[4-(4-methoxyphenyl)-3,3-dimethylpiperazin-1-yl]-N,N-dimethylpyrimidine-4-carboxamide]
22 | < 500 nM | CCOc1cc(C)c(Nc2cc(C(=O)OC)nc(N3CCN(c4ccc(OC)cc4)C(C)(C)C3)n2)cc1C(C)C [Example 28, 6-[(4-ethoxy-5-isopropyl-2-methylphenyl)amino]-2-[4-(4-methoxyphenyl)-3,3-dimethylpiperazin-1-yl]pyrimidine-4-carboxylate methyl]
23 | < 500 nM | COc1ccc(N2CCN(c3nccc(Nc4cc(C(C)(C)C)nn4C)n3)CC2(C)C)cc1 [Example 37, N-(3-tert-butyl-1-methyl-1H-pyrazol-5-yl)-2-[4-(4-methoxyphenyl)-3,3-dimethylpiperazin-1-yl]pyrimidin-4-amine]
24 | < 500 nM | COc1ccc(N2CCN(c3ncc(F)c(Nc4cc(C(C)(C)C)nn4C)n3)CC2(C)C)cc1 [Example 38, N-(3-tert-butyl-1-methyl-1H-pyrazol-5-yl)-5-fluoro-2-[4-(4-methoxyphenyl)-3,3-dimethylpiperazin-1-yl]pyrimidin-4-amine]
25 | < 500 nM | CCOc1cc(C)c(Nc2ccnc(N3CCN(c4ccc(OC)cc4)C(C)(C)C3)n2)cc1C(C)C [Example 45, N-(4-ethoxy-5-isopropyl-2-methylphenyl)-2-[4-(4-methoxyphenyl)-3,3-dimethylpiperazin-1-yl]pyrimidin-4-amine]

— patent US20100204230A1, “PIPERAZINE DERIVATIVES FOR TREATMENT OF AD AND RELATED CONDITIONS” (priority 2007, published 2010)
